Test results from patent publication US5132328A, “Alcohol and ether derivatives” (Imperial Chemical Industries PLC, priority 1988, dated 1992).

Experiments:
[1] = molecular target: T1, cyclooxygenase (Homo sapiens, UniProt P23219); experiment: Test (b): heparinised human blood challenged with A23187, TxB2 radioimmunoassay; format: cell-based
T1 construct: heparinised human blood, prior to challenge with the calcium ionophore A23187; endogenous in cells; host or cells: heparinised human whole blood (platelets and other blood cells, A23187-challenged)
T1 sequence (P23219 24-599): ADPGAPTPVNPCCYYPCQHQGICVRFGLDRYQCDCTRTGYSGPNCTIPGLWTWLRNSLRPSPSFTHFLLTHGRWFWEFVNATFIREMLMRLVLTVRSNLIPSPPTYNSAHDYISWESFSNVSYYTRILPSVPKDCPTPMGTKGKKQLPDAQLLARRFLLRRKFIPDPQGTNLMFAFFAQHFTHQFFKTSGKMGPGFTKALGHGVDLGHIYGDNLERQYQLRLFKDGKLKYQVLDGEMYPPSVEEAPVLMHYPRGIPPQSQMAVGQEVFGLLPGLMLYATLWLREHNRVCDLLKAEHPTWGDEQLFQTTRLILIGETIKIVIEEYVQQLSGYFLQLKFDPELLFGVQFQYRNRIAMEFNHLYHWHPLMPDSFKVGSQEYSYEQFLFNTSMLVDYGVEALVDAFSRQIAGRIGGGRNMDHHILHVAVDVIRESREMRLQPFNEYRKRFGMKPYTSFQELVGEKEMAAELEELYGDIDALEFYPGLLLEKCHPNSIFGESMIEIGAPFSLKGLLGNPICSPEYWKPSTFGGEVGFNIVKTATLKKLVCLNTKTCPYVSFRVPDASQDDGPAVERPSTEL
Method: (§1) (b) An in vitro assay system involving incubating a test compound with heparinised human blood, prior to challenge with the calcium ionophore A23187 and then indirectly measuring the inhibitory effects on 5-LO by assaying the amount of LTB4 using the specific radioimmunoassay described by Carey and Forder (F. Carey and R. A. Forder, Brit. J. Pharmacol. 1985, 84, 34P) which involves the use of a protein-LTB4 conjugate produced using the procedure of Young et alia (Prostaglandins, 1983, 26(4), 605-613). The effects of a test compound on the enzyme cyclooxygenase (which is involved in the alternative metabolic pathway for arachidonic acid and gives rise to prostaglandins, thromboxanes and related metabolites) may be measured at the same time using the specific radioimmunoassay for thromboxane B2 (TxB2) described by Carey and Forder (see above). This test provides an indication of the effects of a test compound against 5-LO and also cyclooxygenase in the presence of blood cells and proteins. It permits the selectivity of the inhibitory effect on 5-LO or cyclooxygenase to be assessed.

[2] = molecular target: T2, 5-LO (Homo sapiens, UniProt P09917); experiment: Test (b): heparinised human blood challenged with A23187, LTB4 radioimmunoassay; format: cell-based
T2 construct: heparinised human blood, prior to challenge with the calcium ionophore A23187; endogenous in cells; host or cells: heparinised human whole blood (blood cells, A23187-challenged)
T2 sequence (P09917 1-674): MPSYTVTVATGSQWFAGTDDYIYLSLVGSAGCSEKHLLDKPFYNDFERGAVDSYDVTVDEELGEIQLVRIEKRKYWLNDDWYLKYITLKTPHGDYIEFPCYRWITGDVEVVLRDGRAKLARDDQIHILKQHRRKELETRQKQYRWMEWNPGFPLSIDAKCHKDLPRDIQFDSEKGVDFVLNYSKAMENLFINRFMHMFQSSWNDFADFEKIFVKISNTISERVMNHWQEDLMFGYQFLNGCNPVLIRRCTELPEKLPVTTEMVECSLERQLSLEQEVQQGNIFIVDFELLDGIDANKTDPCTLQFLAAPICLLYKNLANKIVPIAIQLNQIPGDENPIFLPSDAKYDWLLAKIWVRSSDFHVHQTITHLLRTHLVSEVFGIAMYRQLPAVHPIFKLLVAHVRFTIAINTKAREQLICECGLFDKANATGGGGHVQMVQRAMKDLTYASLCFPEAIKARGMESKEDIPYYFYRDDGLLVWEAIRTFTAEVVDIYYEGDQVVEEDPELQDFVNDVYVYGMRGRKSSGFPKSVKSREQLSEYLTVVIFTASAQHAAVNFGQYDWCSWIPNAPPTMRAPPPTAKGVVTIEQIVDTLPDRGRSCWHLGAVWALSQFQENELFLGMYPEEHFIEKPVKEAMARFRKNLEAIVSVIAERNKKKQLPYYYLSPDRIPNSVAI
Method: as §1

[3] = molecular target: T3, 5-LO (Rattus norvegicus, UniProt P12527); experiment: Test (c): ex vivo assay after (usually oral) administration, blood challenged with A23187, LTB4 radioimmunoassay; format: in vivo
T3 construct: blood collection, heparinisation, challenge with A23187 and radioimmunoassay of LTB4 and TxB2; endogenous in cells
T3 sequence (P12527 1-673): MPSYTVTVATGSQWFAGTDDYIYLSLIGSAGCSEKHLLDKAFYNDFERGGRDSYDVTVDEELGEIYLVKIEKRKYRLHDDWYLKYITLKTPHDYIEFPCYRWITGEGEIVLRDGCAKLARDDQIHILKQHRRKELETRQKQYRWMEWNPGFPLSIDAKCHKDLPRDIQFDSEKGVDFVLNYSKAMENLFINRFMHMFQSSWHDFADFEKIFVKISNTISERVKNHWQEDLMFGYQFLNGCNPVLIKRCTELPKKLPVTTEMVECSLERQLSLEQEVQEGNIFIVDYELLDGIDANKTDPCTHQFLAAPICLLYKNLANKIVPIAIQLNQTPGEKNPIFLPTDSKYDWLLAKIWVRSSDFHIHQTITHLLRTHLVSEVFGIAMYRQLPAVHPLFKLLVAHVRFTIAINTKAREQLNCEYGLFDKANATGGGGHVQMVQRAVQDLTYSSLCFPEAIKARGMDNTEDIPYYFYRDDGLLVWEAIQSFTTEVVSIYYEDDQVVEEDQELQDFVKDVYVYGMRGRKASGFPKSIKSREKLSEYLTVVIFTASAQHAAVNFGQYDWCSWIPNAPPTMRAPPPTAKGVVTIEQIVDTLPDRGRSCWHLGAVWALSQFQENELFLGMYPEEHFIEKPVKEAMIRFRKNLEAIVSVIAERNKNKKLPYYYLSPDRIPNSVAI
Method: (c) An ex vivo assay system, which is a variation of test b) above, involving administration of a test compound (usually orally as the suspension produced when a solution of the test compound in dimethylsulphoxide is added to carboxymethylcellulose), blood collection, heparinisation, challenge with A23187 and radioimmunoassay of LTB4 and TxB2. This test provides an indication of the bioavailability of a test compound as an inhibitor of 5-LO or cyclooxygenase.

CCC(COC)(OC)c1cccc(OCc2ccc3ccccc3c2)c1 (stereo not drawn) [2-methoxy-2-[3-(naphth-2-ylmethoxy)phenyl]but-1-yl methyl ether]
IC50 [1]: > 40000 nM | IC50 [2]: 500 nM | ED50 [3]: 30 mg/kg
